Experiments:
IL-16 and RANTES = assay: Expression of IL-16 and RANTES (FIG. 4); format: cell-based
Excerpt: Referring to FIG. 5, these findings on the role of IL-16 and RANTES in the fibroblast/lymphocyte inflammation cascade provide options for therapies for TAO, RA and other antibody-mediated inflammatory auto-immune disorders. The method of the therapeutic aspect of the invention involves inhibiting the activity of the two chemoattractant molecules that are substantial contributors to the inflammation cascade, IL-16 and RANTES. IL-16 inhibitors include, but are not limited to, rapamycin, wortmannin, caspase-3 inhibitor, and anti-IL-16 antibody. RANTES inhibitors include, but are not limited to, SB203580, and anti-RANTES antibody. […] These compounds either block translation of the chemoattractant molecules, prevent release of chemoattractant molecules from the cell after they are translated, or neutralize the chemoattractant molecules' ability to cause lymphocytic chemotaxis after they are released.

TAO fibroblasts = assay: PGE2 synthesis in TAO fibroblasts; format: cell-based, human; settings: FIG. 7A
Experimental: FIGS. 7A and 7B show the up-regulation of PGE2 synthesis and blockage with SC58125 (a PGHS-2 inhibitor) and dexamethasone (7A) and PGHS-2 expression (7B) in TAO fibroblasts.
Referring to FIGS. 7A and 7B, CD40 ligation in orbital fibroblasts results in the induction of PGHS-2 and leads to the over-production of PGE2. […] CD40 ligation in these cultures results in the intermediate activation of IL-1α gene expression. This induction occurs after 6 h of treatment and is mediated at the pre-translational level. IL-1β is undetectable in orbital fibroblasts and is not induced by CD154. Interrupting the expression, receptor binding or activity of IL-1α attenuates the induction of PGHS-2 provoked by CD40 ligation. It is notable that CD40 is over-expressed by thyroid epithelium in Graves' disease and provokes constitutive PGHS-2 expression. Moreover, functional CD40 is expressed by human thyroid fibroblasts.

orbital fibroblasts [1] = assay: Differentiation of orbital fibroblasts into adipocytes; format: cell-based, human; settings: parent strain, transient exposure; flow analysis
Excerpt: FIGS. 13A-13D show induction of differentiation of Thy-1^− orbital fibroblasts into adipocytes by the […] ligand rosiglitazone. A control phase contrast of parental strain (B) flow cytometric analysis of parental strain showing absence of adipocytes (C) phase contrast post-differentiation showing adipocyte clusters (D) flow analysis showing 44% adipocyte differentiated.
An under-appreciated feature of the tissue remodeling associated with TAO is the expansion of the fat deposit. In fact, a number of surgical therapeutic strategies are aimed directly at reducing the mass of fat in TAO. These have been variably successful in reducing the mechanical embarrassment imposed by excessive fat volumes in TAO. […] While only a small fraction of orbital fibroblasts undergo differentiation into mature adipocytes, the fraction is invariant with regard to whether the fibroblasts were from a patient with TAO or from normal orbital tissues. While this discovery was of substantial interest to us, we realized that the differentiation of such a small fraction of cells might preclude determining the phenotypic changes accompanying them. However, referring to FIGS. 12A-12D, transient exposure to the PPARγ ligand (rosiglitazone) 45 to 65% of the cells in a parent strain matured to adipocytes showing that orbital fibroblasts express abundant PPARγ. […]

RANTES = RANTES ELISA of medium from treated fibroblasts, GD donors; format: cell-based, human; settings: TAO orbital fibroblasts; IGF-1 10 nM, TSH high concentrations
Excerpt: (§1) In addition to its therapeutic aspects, the present invention also relates to a diagnostic method for detecting the presence of antibody-activated fibroblasts in the patient. Applicants believe that several auto immune diseases or disorders are associated with antibody-activated fibroblasts. […] Altered levels of these chemoattractants can be detected in various biological samples in mammals, preferably humans. Levels of IL-16 and/or RANTES may be monitored in a patient, using standard techniques, as an indication of the deleterious aspects of the disease condition. Biological samples, including but not limited to serum, vitreous humor, aqueous humor, synovial fluid, and tissue, will be drawn from the patient using standard techniques. Particularly preferred are serum samples. The measurement of the IL-16 and RANTES levels may be monitored using any method possible to detect the levels of these proteins in biological samples. A preferred method of analysis is by ELISA as described in Sciaky, D. et al., J. Immunol. 164(7):3806-14, 2000. An ELISA specific for IL-16 can be used to assess the levels released by fibroblasts as described previously in Lim, K. G. et al., J. Immunol. 156(7): 2566-70, 1996. An ELISA specific for RANTES can be used according to the manufacturer's specification (BioSource Intl., Camarillo, Calif.).
(§2) The levels of IL-16 and RANTES were then assessed with specific ELISAs. The ELISA assay for IL-16 is performed essentially as discussed in Sciaky D., Brazer, W., Center, D. M., Cruikshank, W. W. and Smith, T. J.: Cultured human fibroblasts express constitutive IL-16 mRNA: Cytokine induction of active IL-16 protein synthesis through a caspase-3-dependent mechanism. J. Immunol. 164(7):3806-14, 2000). An ELISA (BioSource) for RANTES was performed according to the manufacturer's instructions.

IL-16 = IL-16 ELISA of medium from treated fibroblasts, GD donors; format: cell-based, human; settings: TAO orbital fibroblasts; IGF-1 10 nM, TSH high concentrations
Excerpt: as §1, §2

orbital fibroblasts [2] = assay: IL-6 and IL-8 synthesis in orbital fibroblasts on CD40 ligation; format: cell-based, human; settings: orbital fibroblasts treated with rCD154
Excerpt: These include IL-6 and IL-8, two important molecules critical to the activation and trafficking of bone marrow derived cells to sites of inflammation and which have been implicated in Graves' disease. […] Nuclear translocation of NF-κB is provoked by CD40 ligation and inhibiting the activation of this transcriptional factor by stabilizing the NF-κB/IκB complex can block the induction of both IL-6 and IL-8.

COc1cccc(-c2cc(=O)c3ccccc3o2)c1N [PD098059]
effect on IL-16 and RANTES expression (IL-16 and RANTES): inhibition of expression

C[S+]([O-])c1ccc(-c2nc(-c3ccncc3)c(-c3ccc(F)cc3)[nH]2)cc1 (stereo not shown) [SB203580]
effect on IL-16 and RANTES expression (IL-16 and RANTES): inhibition of expression

CS(=O)(=O)c1ccc(-n2nc(C(F)(F)F)cc2-c2ccc(F)cc2)cc1 [SC58125]
effect on up-regulation of PGE2 synthesis (TAO fibroblasts): blockage

CN(CCOc1ccc(CC2SC(=O)NC2=O)cc1)c1ccccn1 (stereo not shown) [rosiglitazone]
cells matured (differentiated) to adipocytes (orbital fibroblasts [1]): 44%

IGF-1: authentic IGF-1, ligand of the IGF-1 receptor
induction of RANTES expression by the substance itself (RANTES): mimicked
induction of IL-16 expression by the substance itself (IL-16): mimicked

B1: rCD154: recombinant CD40 ligand, member of the TNF-α superfamily (protein, UniProt P29965 113-261, looked up)
CD40 ligand, soluble form: MQKGDQNPQIAAHVISEASSKTTSVLQWAEKGYYTMSNNLVTLENGKQLTVKRQGLYYIYAQVTFCSNREASSQAPFIASLCLKSPGRFERILLRAANTHSSAKPCGQQSIHLGGVFELQPGASVFVNVTDPSQVSHGTGFTSFGLLKL
synthesis of both IL-6 and IL-8 (orbital fibroblasts [2]): dramatically increased
